Experimental data published in ChEMBL document CHEMBL1201862, “PubChem BioAssay data set” (2004).
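Tested at 5 concentrations; 48 h exposure; 96-well plates; endpoints linearly interpolated, else capped at highest concentration. GI50: concentration for 50% inhibition of growth.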 Calls of active or inactive are those of the source. No stated cut-off is given here; in the data, active = GI50 up to about 1.1 µM and inactive = higher.

Columns and labels:
Assay in all cases: NCI anticancer screen, dose series, 48 h
SK-MEL-2 = system: SK-MEL-2
SF-268 = system: SF-268
OVCAR-4 = system: OVCAR-4
LOX IMVI = system: LOX IMVI
786-0 = system: 786-0
HOP-62 = system: HOP-62
UACC-257 = system: UACC-257
TK-10 = system: TK-10
NCI-H226 = system: NCI-H226
DU-145 = system: DU-145
HL-60 = system: HL-60
PC-3 = system: PC-3
NCI/ADR-RES = system: NCI/ADR-RES
A549 = system: A549
BT-549 = system: BT-549
SNB-19 = system: SNB-19
CAKI-1 = system: CAKI-1
SNB-75 = system: SNB-75
M14 = system: M14
OVCAR-3 = system: OVCAR-3

Measured: GI50

CCOC(=O)C(NC(=O)c1ccccc1)(Nc1cc(C)on1)C(F)(F)F (configuration not stated)
inactive: SK-MEL-2 > 100 µM | SF-268 > 100 µM | OVCAR-4 > 100 µM | LOX IMVI > 100 µM | 786-0 > 100 µM | HOP-62 > 100 µM | UACC-257 > 100 µM | TK-10 > 100 µM | NCI-H226 > 100 µM | DU-145 > 100 µM | HL-60 > 100 µM | PC-3 > 100 µM | NCI/ADR-RES > 100 µM | A549 > 100 µM | BT-549 > 100 µM | SNB-19 > 100 µM | CAKI-1 > 100 µM | SNB-75 > 100 µM | M14 > 100 µM | OVCAR-3 > 100 µM

O=C1C=C(Nc2nc(O)cc(C(=O)O)n2)c2ccccc2C1=O
inactive: SK-MEL-2 > 100 µM | SF-268 > 100 µM | OVCAR-4 > 100 µM | LOX IMVI > 100 µM | 786-0 > 100 µM | HOP-62 > 100 µM | UACC-257 > 100 µM | TK-10 > 100 µM | NCI-H226 > 100 µM | DU-145 > 100 µM | HL-60 > 100 µM | PC-3 > 100 µM | NCI/ADR-RES > 100 µM | A549 > 100 µM | BT-549 > 100 µM | SNB-19 > 100 µM | CAKI-1 > 100 µM | SNB-75 > 100 µM | M14 > 100 µM | OVCAR-3 > 100 µM

O=C(/C=C/c1ccccc1)c1cc(Br)ccc1O
inactive: SK-MEL-2 21.4 µM | SF-268 16.9 µM | OVCAR-4 15.1 µM | LOX IMVI 12.2 µM | 786-0 13.9 µM | HOP-62 20.1 µM | UACC-257 14 µM | TK-10 17.6 µM | NCI-H226 12.9 µM | DU-145 14.9 µM | HL-60 4.06 µM | PC-3 17.1 µM | NCI/ADR-RES 17.5 µM | A549 24 µM | BT-549 16 µM | SNB-19 17.1 µM | CAKI-1 15.8 µM | SNB-75 15.4 µM | M14 24 µM | OVCAR-3 18 µM

O=C(NCc1ccccc1)c1cc2ccccc2o/c1=N\c1cccc(C(F)(F)F)c1
inactive: SK-MEL-2 28.6 µM | SF-268 > 100 µM | OVCAR-4 69.7 µM | LOX IMVI 35.6 µM | 786-0 29.8 µM | HOP-62 85.3 µM | UACC-257 29.5 µM | TK-10 50.4 µM | NCI-H226 29.8 µM | DU-145 > 100 µM | HL-60 20.5 µM | PC-3 44.3 µM | NCI/ADR-RES 47.1 µM | A549 47.1 µM | BT-549 > 100 µM | SNB-19 > 100 µM | CAKI-1 > 100 µM | SNB-75 74.8 µM | M14 87.3 µM | OVCAR-3 67.3 µM

Cc1cn([C@@H]2C[C@H]2CO)c(=O)[nH]c1=O
inactive: SK-MEL-2 > 100 µM | SF-268 > 100 µM | OVCAR-4 > 100 µM | LOX IMVI > 100 µM | 786-0 > 100 µM | HOP-62 > 100 µM | UACC-257 > 100 µM | TK-10 > 100 µM | NCI-H226 > 100 µM | DU-145 > 100 µM | HL-60 > 100 µM | PC-3 > 100 µM | NCI/ADR-RES > 100 µM | A549 > 100 µM | BT-549 > 100 µM | SNB-19 > 100 µM | CAKI-1 > 100 µM | SNB-75 > 100 µM | M14 > 100 µM

CCC1=CC2Cc3nc4cc(Cl)ccc4c(N)c3C(C1)C2 (configuration not stated)
inactive: SK-MEL-2 5.45 µM | SF-268 4.62 µM | OVCAR-4 3.59 µM | LOX IMVI 4.54 µM | 786-0 5.04 µM | HOP-62 8.2 µM | UACC-257 2.11 µM | TK-10 4.38 µM | NCI-H226 1.48 µM | DU-145 11.2 µM | HL-60 2.29 µM | PC-3 4.47 µM | NCI/ADR-RES 8.3 µM | A549 7.59 µM | BT-549 15.5 µM | SNB-19 9.12 µM | CAKI-1 2.26 µM | SNB-75 6.35 µM | M14 1.54 µM | OVCAR-3 7.29 µM

COc1ccc2oc(=N)c(C(N)=O)cc2c1
inactive: SK-MEL-2 23.6 µM | SF-268 44.3 µM | OVCAR-4 48.1 µM | LOX IMVI 37.4 µM | 786-0 53.5 µM | HOP-62 55.2 µM | UACC-257 > 100 µM | NCI-H226 46.1 µM | DU-145 71.9 µM | HL-60 22.9 µM | PC-3 37.9 µM | NCI/ADR-RES 53.3 µM | A549 > 100 µM | BT-549 57.7 µM | SNB-19 38.4 µM | CAKI-1 50.6 µM | SNB-75 30.1 µM | M14 87.3 µM | OVCAR-3 37.4 µM

COC(=O)C1OC(O[C@H]2CC[C@]3(C)[C@H]4CC=C5[C@@H]6CC(C)(C)CC[C@]6(C(=O)OC)[C@H](O)C[C@@]5(C)[C@]4(C)CC[C@H]3C2(C)C)C(O)C(O)C1O (some centres not stated)
inactive: SK-MEL-2 15.1 µM | SF-268 13.2 µM | OVCAR-4 5.68 µM | LOX IMVI 3.18 µM | 786-0 8.49 µM | HOP-62 17 µM | UACC-257 15.3 µM | NCI-H226 15 µM | DU-145 10 µM | HL-60 3.37 µM | PC-3 6.64 µM | NCI/ADR-RES 12.2 µM | A549 4.08 µM | BT-549 15.7 µM | SNB-19 13.9 µM | CAKI-1 14.2 µM | SNB-75 14.8 µM | M14 5.22 µM | OVCAR-3 10.4 µM

C[Si](C)(OCCS(=O)(=O)O)OC(=C1S(=O)(=O)OCCOS1(=O)=O)c1cccc2ccccc12
inactive: SK-MEL-2 > 100 µM | SF-268 64 µM | OVCAR-4 > 100 µM | LOX IMVI > 100 µM | 786-0 > 100 µM | HOP-62 > 100 µM | UACC-257 > 100 µM | TK-10 > 100 µM | NCI-H226 > 100 µM | DU-145 > 100 µM | HL-60 11.6 µM | PC-3 > 100 µM | NCI/ADR-RES > 100 µM | A549 > 100 µM | BT-549 > 100 µM | SNB-19 > 100 µM | CAKI-1 > 100 µM | SNB-75 > 100 µM | M14 > 100 µM | OVCAR-3 36.5 µM

CC(C)(C)OC(=O)N(CCCN)CCCCN(CCCN)C(=O)OC(C)(C)C
inactive: SK-MEL-2 > 100 µM | SF-268 > 100 µM | OVCAR-4 > 100 µM | LOX IMVI > 100 µM | 786-0 > 100 µM | HOP-62 > 100 µM | UACC-257 > 100 µM | TK-10 > 100 µM | NCI-H226 > 100 µM | DU-145 > 100 µM | HL-60 > 100 µM | PC-3 > 100 µM | NCI/ADR-RES > 100 µM | A549 > 100 µM | BT-549 > 100 µM | SNB-19 > 100 µM | CAKI-1 > 100 µM | SNB-75 > 100 µM | M14 > 100 µM | OVCAR-3 > 100 µM
